In the CheMixHub viscosity set:
± gives the uncertainty stated by the source.

Test: xn = mol fraction of the nth substance listed

## c1ccccc1 + CO
293.15 K, 101 kPa, x2 = 0.1
  viscosity: 0.622 ± 0.012 mPa·s
293.15 K, 101 kPa, x2 = 0.152
  viscosity: 0.615 ± 0.012 mPa·s
293.15 K, 101 kPa, x2 = 0.2
  viscosity: 0.613 ± 0.012 mPa·s
293.15 K, 101 kPa, x2 = 0.272
  viscosity: 0.613 ± 0.012 mPa·s
293.15 K, 101 kPa, x2 = 0.4
  viscosity: 0.619 ± 0.012 mPa·s
293.15 K, 101 kPa, x2 = 0.444
  viscosity: 0.619 ± 0.012 mPa·s
293.15 K, 101 kPa, x2 = 0.6
  viscosity: 0.626 ± 0.013 mPa·s
293.15 K, 101 kPa, x2 = 0.632
  viscosity: 0.624 ± 0.013 mPa·s
293.15 K, 101 kPa, x2 = 0.766
  viscosity: 0.619 ± 0.012 mPa·s
293.15 K, 101 kPa, x2 = 0.8
  viscosity: 0.626 ± 0.013 mPa·s
293.15 K, 101 kPa, x2 = 0.9
  viscosity: 0.61 ± 0.012 mPa·s
293.15 K, 101 kPa, x2 = 0.901
  viscosity: 0.604 ± 0.012 mPa·s
293.15 K, 101.33 kPa, x1 = 0.04357
  viscosity: 0.59 ± 0.015 mPa·s
293.15 K, 101.33 kPa, x1 = 0.2216
  viscosity: 0.6132 ± 0.016 mPa·s
293.15 K, 101.33 kPa, x1 = 0.4216
  viscosity: 0.6197 ± 0.016 mPa·s
293.15 K, 101.33 kPa, x1 = 0.603
  viscosity: 0.6164 ± 0.016 mPa·s
293.15 K, 101.33 kPa, x1 = 0.7816
  viscosity: 0.6138 ± 0.016 mPa·s
293.15 K, 101.33 kPa, x1 = 0.9285
  viscosity: 0.6252 ± 0.016 mPa·s
298.15 K, 101 kPa, x2 = 0.0504
  viscosity: 0.581 ± 0.01 mPa·s
298.15 K, 101 kPa, x2 = 0.1
  viscosity: 0.563 ± 0.01 mPa·s
298.15 K, 101 kPa, x2 = 0.1998
  viscosity: 0.553 ± 0.01 mPa·s
298.15 K, 101 kPa, x2 = 0.2982
  viscosity: 0.56 ± 0.01 mPa·s
298.15 K, 101 kPa, x2 = 0.4
  viscosity: 0.561 ± 0.01 mPa·s
298.15 K, 101 kPa, x2 = 0.5
  viscosity: 0.566 ± 0.01 mPa·s
298.15 K, 101 kPa, x2 = 0.6
  viscosity: 0.565 ± 0.01 mPa·s
298.15 K, 101 kPa, x2 = 0.7
  viscosity: 0.56 ± 0.01 mPa·s
298.15 K, 101 kPa, x2 = 0.8009
  viscosity: 0.557 ± 0.01 mPa·s
298.15 K, 101 kPa, x2 = 0.9013
  viscosity: 0.553 ± 0.01 mPa·s
298.15 K, 101 kPa, x2 = 0.95
  viscosity: 0.551 ± 0.01 mPa·s
303.15 K, 101 kPa, x1 = 0.1598
  viscosity: 0.564 ± 0.079 mPa·s
303.15 K, 101 kPa, x1 = 0.3449
  viscosity: 0.563 ± 0.079 mPa·s
303.15 K, 101 kPa, x1 = 0.4474
  viscosity: 0.559 ± 0.079 mPa·s
303.15 K, 101 kPa, x1 = 0.7425
  viscosity: 0.546 ± 0.077 mPa·s
303.15 K, 101 kPa, x1 = 0.8277
  viscosity: 0.54 ± 0.076 mPa·s
303.15 K, 101 kPa, x2 = 0.152
  viscosity: 0.534 ± 0.011 mPa·s
303.15 K, 101 kPa, x2 = 0.272
  viscosity: 0.532 ± 0.011 mPa·s
303.15 K, 101 kPa, x2 = 0.444
  viscosity: 0.536 ± 0.011 mPa·s
303.15 K, 101 kPa, x2 = 0.632
  viscosity: 0.535 ± 0.011 mPa·s
303.15 K, 101 kPa, x2 = 0.766
  viscosity: 0.534 ± 0.011 mPa·s
303.15 K, 101 kPa, x2 = 0.901
  viscosity: 0.527 ± 0.011 mPa·s
303.15 K, 101.33 kPa, x1 = 0.04357
  viscosity: 0.5121 ± 0.013 mPa·s
303.15 K, 101.33 kPa, x1 = 0.0572
  viscosity: 0.562 ± 0.015 mPa·s
303.15 K, 101.33 kPa, x1 = 0.1598
  viscosity: 0.564 ± 0.015 mPa·s
303.15 K, 101.33 kPa, x1 = 0.2216
  viscosity: 0.528 ± 0.014 mPa·s
303.15 K, 101.33 kPa, x1 = 0.2552
  viscosity: 0.56 ± 0.015 mPa·s
303.15 K, 101.33 kPa, x1 = 0.3449
  viscosity: 0.563 ± 0.015 mPa·s
303.15 K, 101.33 kPa, x1 = 0.4216
  viscosity: 0.5315 ± 0.014 mPa·s
303.15 K, 101.33 kPa, x1 = 0.4474
  viscosity: 0.559 ± 0.015 mPa·s
303.15 K, 101.33 kPa, x1 = 0.603
  viscosity: 0.5296 ± 0.014 mPa·s
303.15 K, 101.33 kPa, x1 = 0.7425
  viscosity: 0.546 ± 0.015 mPa·s
303.15 K, 101.33 kPa, x1 = 0.7816
  viscosity: 0.5278 ± 0.014 mPa·s
303.15 K, 101.33 kPa, x1 = 0.8277
  viscosity: 0.54 ± 0.014 mPa·s
303.15 K, 101.33 kPa, x1 = 0.9285
  viscosity: 0.5399 ± 0.014 mPa·s
313.15 K, 101 kPa, x1 = 0.1598
  viscosity: 0.491 ± 0.071 mPa·s
313.15 K, 101 kPa, x1 = 0.3449
  viscosity: 0.507 ± 0.073 mPa·s
313.15 K, 101 kPa, x1 = 0.4474
  viscosity: 0.478 ± 0.07 mPa·s
313.15 K, 101 kPa, x1 = 0.7425
  viscosity: 0.469 ± 0.068 mPa·s
313.15 K, 101 kPa, x1 = 0.8277
  viscosity: 0.49 ± 0.071 mPa·s
313.15 K, 101 kPa, x2 = 0.152
  viscosity: 0.468 ± 0.01 mPa·s
313.15 K, 101 kPa, x2 = 0.272
  viscosity: 0.461 ± 0.01 mPa·s
313.15 K, 101 kPa, x2 = 0.444
  viscosity: 0.469 ± 0.01 mPa·s
313.15 K, 101 kPa, x2 = 0.632
  viscosity: 0.467 ± 0.01 mPa·s
313.15 K, 101 kPa, x2 = 0.766
  viscosity: 0.466 ± 0.01 mPa·s
313.15 K, 101 kPa, x2 = 0.901
  viscosity: 0.464 ± 0.01 mPa·s
313.15 K, 101.33 kPa, x1 = 0.04357
  viscosity: 0.4473 ± 0.012 mPa·s
313.15 K, 101.33 kPa, x1 = 0.0572
  viscosity: 0.5 ± 0.013 mPa·s
313.15 K, 101.33 kPa, x1 = 0.1598
  viscosity: 0.491 ± 0.013 mPa·s
313.15 K, 101.33 kPa, x1 = 0.2216
  viscosity: 0.4585 ± 0.012 mPa·s
313.15 K, 101.33 kPa, x1 = 0.2552
  viscosity: 0.505 ± 0.013 mPa·s
313.15 K, 101.33 kPa, x1 = 0.3449
  viscosity: 0.507 ± 0.014 mPa·s
313.15 K, 101.33 kPa, x1 = 0.4216
  viscosity: 0.4613 ± 0.012 mPa·s
313.15 K, 101.33 kPa, x1 = 0.4474
  viscosity: 0.478 ± 0.013 mPa·s
313.15 K, 101.33 kPa, x1 = 0.603
  viscosity: 0.4593 ± 0.012 mPa·s
313.15 K, 101.33 kPa, x1 = 0.7425
  viscosity: 0.469 ± 0.013 mPa·s
313.15 K, 101.33 kPa, x1 = 0.7816
  viscosity: 0.4611 ± 0.012 mPa·s
313.15 K, 101.33 kPa, x1 = 0.8277
  viscosity: 0.49 ± 0.013 mPa·s
313.15 K, 101.33 kPa, x1 = 0.9285
  viscosity: 0.4736 ± 0.012 mPa·s
323.15 K, 101 kPa, x1 = 0.1598
  viscosity: 0.411 ± 0.062 mPa·s
323.15 K, 101 kPa, x1 = 0.3449
  viscosity: 0.405 ± 0.061 mPa·s
323.15 K, 101 kPa, x1 = 0.4474
  viscosity: 0.414 ± 0.062 mPa·s
323.15 K, 101 kPa, x1 = 0.7425
  viscosity: 0.411 ± 0.062 mPa·s
323.15 K, 101 kPa, x1 = 0.8277
  viscosity: 0.413 ± 0.062 mPa·s
323.15 K, 101 kPa, x2 = 0.152
  viscosity: 0.416 ± 0.009 mPa·s
323.15 K, 101 kPa, x2 = 0.272
  viscosity: 0.414 ± 0.009 mPa·s
323.15 K, 101 kPa, x2 = 0.444
  viscosity: 0.415 ± 0.009 mPa·s
323.15 K, 101 kPa, x2 = 0.632
  viscosity: 0.414 ± 0.009 mPa·s
323.15 K, 101 kPa, x2 = 0.766
  viscosity: 0.412 ± 0.009 mPa·s
323.15 K, 101 kPa, x2 = 0.901
  viscosity: 0.411 ± 0.009 mPa·s
323.15 K, 101.33 kPa, x1 = 0.04357
  viscosity: 0.3935 ± 0.01 mPa·s
323.15 K, 101.33 kPa, x1 = 0.0572
  viscosity: 0.415 ± 0.011 mPa·s
323.15 K, 101.33 kPa, x1 = 0.1598
  viscosity: 0.411 ± 0.011 mPa·s
323.15 K, 101.33 kPa, x1 = 0.2216
  viscosity: 0.4016 ± 0.01 mPa·s
323.15 K, 101.33 kPa, x1 = 0.2552
  viscosity: 0.418 ± 0.011 mPa·s
323.15 K, 101.33 kPa, x1 = 0.3449
  viscosity: 0.405 ± 0.011 mPa·s
323.15 K, 101.33 kPa, x1 = 0.4216
  viscosity: 0.4039 ± 0.011 mPa·s
323.15 K, 101.33 kPa, x1 = 0.4474
  viscosity: 0.414 ± 0.011 mPa·s
323.15 K, 101.33 kPa, x1 = 0.603
  viscosity: 0.4034 ± 0.011 mPa·s
323.15 K, 101.33 kPa, x1 = 0.7425
  viscosity: 0.411 ± 0.011 mPa·s
323.15 K, 101.33 kPa, x1 = 0.7816
  viscosity: 0.4073 ± 0.011 mPa·s
323.15 K, 101.33 kPa, x1 = 0.8277
  viscosity: 0.413 ± 0.011 mPa·s
323.15 K, 101.33 kPa, x1 = 0.9285
  viscosity: 0.4198 ± 0.011 mPa·s
